“And” between values parts separate entries of the source, which are not always exact repeats. Identical values can stand only once.
Tests used:
Format in all cases: cell-based
GPR139 [1] = target: T1, GPR139 (Homo sapiens, UniProt Q6DWJ6); assay: Ca2+ mobilization assay, agonist mode, stable GPR139-CHOk1 cell line; conditions: for EC50 / Emax: Supplementary Table 2, mean ± SEM; for EC50: read-out: pEC50 Ca2+ (converted); for Emax: normalized to Lundbeck Cmp 1a, read-out: Emax (%) Ca2+
T1 sequence (Q6DWJ6 1-353): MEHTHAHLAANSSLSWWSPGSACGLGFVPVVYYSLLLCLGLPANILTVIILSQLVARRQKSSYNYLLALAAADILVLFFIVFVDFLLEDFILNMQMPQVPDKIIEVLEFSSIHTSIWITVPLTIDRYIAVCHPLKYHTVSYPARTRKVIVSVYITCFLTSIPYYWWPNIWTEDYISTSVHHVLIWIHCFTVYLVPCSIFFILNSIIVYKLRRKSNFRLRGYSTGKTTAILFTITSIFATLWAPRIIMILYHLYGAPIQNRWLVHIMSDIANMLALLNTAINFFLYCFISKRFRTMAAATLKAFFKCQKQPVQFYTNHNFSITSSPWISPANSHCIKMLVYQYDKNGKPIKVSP
In short: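 Agonist activity of compounds is assessed in stably transfected CHO-K1 cells using the calcium dye Fluo-4 at 37 °C in HEPES-buffered HBSS (pH 7.4). Efficacy is expressed relative to the reference agonist Lundbeck Cmp 1a, set as 100%.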

[2] = target: T2, human muscarinic acetylcholine M1 receptor (M1R) (Homo sapiens, UniProt P11229); assay: Ca2+ mobilization counter-screen in M1R-CHOk1 cells
T2 sequence (P11229 1-460): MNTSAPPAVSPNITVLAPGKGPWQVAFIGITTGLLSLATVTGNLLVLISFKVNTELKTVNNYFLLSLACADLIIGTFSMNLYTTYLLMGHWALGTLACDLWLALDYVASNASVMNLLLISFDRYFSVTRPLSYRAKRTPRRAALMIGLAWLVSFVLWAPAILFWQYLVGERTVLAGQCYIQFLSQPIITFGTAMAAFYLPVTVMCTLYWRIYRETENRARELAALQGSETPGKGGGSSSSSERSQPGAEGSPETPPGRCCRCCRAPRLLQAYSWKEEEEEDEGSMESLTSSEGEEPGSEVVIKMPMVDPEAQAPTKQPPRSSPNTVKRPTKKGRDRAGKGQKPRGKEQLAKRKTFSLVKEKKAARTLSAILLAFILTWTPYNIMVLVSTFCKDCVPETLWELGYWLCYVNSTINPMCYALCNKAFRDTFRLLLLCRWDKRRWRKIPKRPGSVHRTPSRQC
In short: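 Stable M1R-CHOk1 line; Fluo-4 AM 2 µM, 1 h, 37 °C; HEPES-buffered HBSS pH 7.4 + 1 mM MgCl2/CaCl2 + 2.5 mM probenecid; 10 min equilibration; compound injected post-baseline; ex 485/em 525, 37 °C; DMSO ≤0.3%.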

GPR139 [3] = target: T1, GPR139; assay: Ca2+ mobilization assay, antagonist mode (EC80 800 nM Lundbeck Cmp 1a after 20 min preincubation), GPR139-CHOk1
In short: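 Fluo-4-loaded GPR139-CHOk1 cells in HEPES-buffered HBSS (pH 7.4, 2.5 mM probenecid) given test compounds at 10 µM, then after 20 min challenged with 800 nM Lundbeck Cmp 1a (EC80). Calcium fluorescence read at 37 °C, 485/525 nm.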

[4] = Agonist mode, individual replicates (Supplementary Figure 4)
[5] = log [Compound] M = -4.5, individual replicate columns
[6] = log [Compound] M = -5.0, individual replicate columns
[7] = log [Compound] M = -5.5, individual replicate columns
[8] = log [Compound] M = -6.0, individual replicate columns
[9] = log [Compound] M = -6.5, individual replicate columns
[10] = log [Compound] M = -7.0, individual replicate columns
[11] = log [Compound] M = -7.5, individual replicate columns
[12] = log [Compound] M = -8.0, individual replicate columns
[13] = log [Compound] M = -8.5, individual replicate columns
[14] = log [Compound] M = -9.0, individual replicate columns
[15] = individual replicates (Supplementary Figure 5)
[16] = individual replicates (Supplementary Figure 4)
[17] = 0.1 µM, individual replicates (Supplementary Figure 3)
[18] = 1 µM, individual replicates (Supplementary Figure 3)
[19] = 10 µM, individual replicates (Supplementary Figure 3)
[20] = Agonist mode, individual replicates (Supplementary Figure 1)
[21] = individual replicates (Supplementary Figure 2)
[22] = individual replicates (Supplementary Figure 1)

Row | SMILES | Ca2+ signal (% of Cmp 1a) (GPR139 [1]; [4]) | EC50 (GPR139 [1]) | Emax (GPR139 [1]) | Ca2+ signal (% of Cmp 1a) (GPR139 [1]; [5]) | Ca2+ signal (% of Cmp 1a) (GPR139 [1]; [6]) | Ca2+ signal (% of Cmp 1a) (GPR139 [1]; [7]) | Ca2+ signal (% of Cmp 1a) (GPR139 [1]; [8]) | Ca2+ signal (% of Cmp 1a) (GPR139 [1]; [9]) | Ca2+ signal (% of Cmp 1a) (GPR139 [1]; [10]) | Ca2+ signal (% of Cmp 1a) (GPR139 [1]; [11]) | Ca2+ signal (% of Cmp 1a) (GPR139 [1]; [12]) | Ca2+ signal (% of Cmp 1a) (GPR139 [1]; [13]) | Ca2+ signal (% of Cmp 1a) (GPR139 [1]; [14]) | Ca2+ signal (% of Carbachol) [2, 15] | Ca2+ signal (% of Cmp 1a) (GPR139 [3]; [16]) | Ca2+ signal (% of Cmp 1a) (GPR139 [1]; [17]) | Ca2+ signal (% of Cmp 1a) (GPR139 [1]; [18]) | Ca2+ signal (% of Cmp 1a) (GPR139 [1]; [19]) | Ca2+ signal (% of Cmp 1a) (GPR139 [1]; [20]) | Ca2+ signal (% of Carbachol) [2, 21] | further results
1 | Cc1csc(-c2nc(CC(=O)NC(C)c3ccccc3)no2)c1 (centres unmarked) [Compound 1.11, CC(C1=CC=CC=C1)NC(CC2=NOC(C3=CC(C)=CS3)=N2)=O] | 83 % of Cmp 1a and 63 % of Cmp 1a and 71 % of Cmp 1a | 200 nM | 105 ± 10% | 119 % of Cmp 1a and 103 % of Cmp 1a and 72 % of Cmp 1a and 99 % of Cmp 1a | 117 % of Cmp 1a and 110 % of Cmp 1a and 94 % of Cmp 1a and 97 % of Cmp 1a | 109 % of Cmp 1a and 87 % of Cmp 1a and 67 % of Cmp 1a and 96 % of Cmp 1a | 94 % of Cmp 1a and 70 % of Cmp 1a and 59 % of Cmp 1a and 79 % of Cmp 1a | 69 % of Cmp 1a and 58 % of Cmp 1a and 32 % of Cmp 1a and 65 % of Cmp 1a | 58 % of Cmp 1a and 48 % of Cmp 1a and 20 % of Cmp 1a and 43 % of Cmp 1a | 38 % of Cmp 1a and -18 % of Cmp 1a and -19 % of Cmp 1a and 30 % of Cmp 1a | 31 % of Cmp 1a and 1.33 % of Cmp 1a and -4 % of Cmp 1a and 6.33 % of Cmp 1a | 6 % of Cmp 1a and 1.67 % of Cmp 1a and 4.67 % of Cmp 1a and 3.33 % of Cmp 1a | 10 % of Cmp 1a and 7 % of Cmp 1a and -2.67 % of Cmp 1a and 1.33 % of Cmp 1a | -8 % of Carbachol and 27 % of Carbachol and -10 % of Carbachol | 0 % of Cmp 1a and -3 % of Cmp 1a and -25 % of Cmp 1a |  |  |  |  |  | 
2 | Cc1cccc(-c2nc(CC(=O)NC(C)c3ccccc3)no2)n1 (centres unmarked) [Compound 1.13, CC(C1=CC=CC=C1)NC(CC2=NOC(C3=NC(C)=CC=C3)=N2)=O] | 87 % of Cmp 1a and 109 % of Cmp 1a and 94 % of Cmp 1a | 398 nM | 95 ± 10% | 113 % of Cmp 1a and 100 % of Cmp 1a and 105 % of Cmp 1a and 55 % of Cmp 1a | 98 % of Cmp 1a and 101 % of Cmp 1a and 89 % of Cmp 1a and 78 % of Cmp 1a | 85 % of Cmp 1a and 87 % of Cmp 1a and 83 % of Cmp 1a and 50 % of Cmp 1a | 76 % of Cmp 1a and 73 % of Cmp 1a (2×) and 42 % of Cmp 1a | 49 % of Cmp 1a (2×) and 40 % of Cmp 1a and 22 % of Cmp 1a | 28 % of Cmp 1a and 33 % of Cmp 1a and 12 % of Cmp 1a (2×) | 0 % of Cmp 1a and 14 % of Cmp 1a and -10 % of Cmp 1a and 13 % of Cmp 1a | 8 % of Cmp 1a and 0.667 % of Cmp 1a and -4 % of Cmp 1a and -5 % of Cmp 1a | 8 % of Cmp 1a and -4.67 % of Cmp 1a and -2.67 % of Cmp 1a and -3 % of Cmp 1a | 2 % of Cmp 1a (2×) and -0.333 % of Cmp 1a and -15 % of Cmp 1a | -3 % of Carbachol and 3 % of Carbachol and 7 % of Carbachol | 7 % of Cmp 1a and 16 % of Cmp 1a and -17 % of Cmp 1a |  |  |  |  |  | fold decrease in potency relative to a similar phenyl substituted compound (1.3) (GPR139 [1]; Ca2+ mobilization EC50): 4- to 16 fold
3 | CC(NC(=O)C1CCN(c2cccc(Cl)c2)C1=O)c1ccsc1 (centres unmarked) [Compound 12, CC(NC(=O)C1CCN(C1=O)C=2C=CC=C(Cl)C2)C=3C=CSC3] |  |  |  |  |  |  |  |  |  |  |  |  |  |  |  | -2.8 % of Cmp 1a and 0.3 % of Cmp 1a | -0.458 % of Cmp 1a and 0.235 % of Cmp 1a | 12.7 % of Cmp 1a and 12.3 % of Cmp 1a | 45 % of Cmp 1a and 20 % of Cmp 1a and 39 % of Cmp 1a | -6.54 % of Carbachol and -0.0404 % of Carbachol | Ca2+ signal (% of Cmp 1a) (GPR139 [3]; [22]): 56.3731 % of Cmp 1a and 71.421 % of Cmp 1a and 56.1991 % of Cmp 1a
4 | CN(Cc1cc(Cl)cn1C)C(=O)CCC(=O)c1cccs1 [Compound 11, CN(CC1=CC(Cl)=CN1C)C(=O)CCC(=O)C2=CC=CS2] |  |  |  |  |  |  |  |  |  |  |  |  |  |  |  | 1.5 % of Cmp 1a and 12.7 % of Cmp 1a | -6.5 % of Cmp 1a and 1.1 % of Cmp 1a | 13.9 % of Cmp 1a and 12.8 % of Cmp 1a | 40 % of Cmp 1a and 30 % of Cmp 1a and 33 % of Cmp 1a | -4 % of Carbachol and 17 % of Carbachol | Ca2+ signal (% of Cmp 1a) (GPR139 [1]; primary screen, 10 µM compound, agonist mode, three columns = independent experiments): 40 % of Cmp 1a and 30 % of Cmp 1a and 33 % of Cmp 1a; Ca2+ signal (% of Cmp 1a) (GPR139 [3]; [22]): 63.3528 % of Cmp 1a and 60.457 % of Cmp 1a and 64.2066 % of Cmp 1a

Source: publication PMC12775434, “Ultra-large virtual screening unveils potent agonists of the neuromodulatory orphan receptor GPR139” (Nature Communications, 2025)
